Measured values taken from paper PMC2575047 (Molecular pharmacology, 2008).
Like-named read-outs stand apart in the source and are kept apart here.

What was measured:
human S1P1 = human S1P1 (Homo sapiens, UniProt P21453); assay type: cell-based
human S1P5 = human S1P5 (Homo sapiens, UniProt Q9H228); experiment: S1P5 agonist format, TANGO S1P5-bla U2OS cells; assay type: cell-based
[1] = target: human wild-type S1P1 (WT) (Homo sapiens, UniProt P21453); assay type: cell-based
S1P1 R^120A mutant = S1P1 R^120A mutant (Homo sapiens, UniProt P21453, R120A); assay type: cell-based; settings: for Emax: CHO-K1; for EC50: without W146
S1P1 R^120A mutant, sequence (P21453 whole entry R120A): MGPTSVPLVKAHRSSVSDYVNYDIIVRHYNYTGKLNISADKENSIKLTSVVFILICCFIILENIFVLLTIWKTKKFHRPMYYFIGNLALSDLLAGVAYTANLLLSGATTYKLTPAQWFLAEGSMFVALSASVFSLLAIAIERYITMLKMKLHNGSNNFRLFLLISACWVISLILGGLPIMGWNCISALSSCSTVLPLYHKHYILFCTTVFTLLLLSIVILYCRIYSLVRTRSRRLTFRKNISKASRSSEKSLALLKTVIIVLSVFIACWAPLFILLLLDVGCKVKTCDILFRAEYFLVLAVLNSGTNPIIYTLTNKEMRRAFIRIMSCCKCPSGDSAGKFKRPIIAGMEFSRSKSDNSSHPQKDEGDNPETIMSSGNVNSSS

S1P1 E^121A mutant = S1P1 E^121A mutant (Homo sapiens, UniProt P21453, E121A); assay type: cell-based; settings: for EC50: without W146
S1P1 E^121A mutant, sequence (P21453 whole entry E121A): as the sequence (P21453 whole entry R120A) above, with A120R, E121A counted along it

[2] = Pharmacokinetics in Sprague Dawley rats; assay type: in vivo; settings: rat
[3] = Brain exposure in C57Bl6 mice; assay type: in vivo; settings: C57Bl6, mouse, ip, 10 mg/kg
[4] = tested on: blood lymphocytes (WBC, B220+, CD4+, CD8+); experiment: CYM-5442 mediated lymphopenia in mice; assay type: in vivo, C57BL6 mice; settings: for B220^+ cells, percent relative to animals receiving both drug vehicles / CD4^+ cells, percent relative to animals receiving both drug vehicles / CD8^+ cells, percent relative to animals receiving both drug vehicles: W146 20 mg/kg i.p. 30 min before, CYM-5442 2 mg/kg
[5] = Serum drug concentration in the lymphopenia studies; assay type: in vivo, C57BL6 mice; settings: mice; for serum drug concentration (± SD): W146 20 mg/kg + CYM-5442 2 mg/kg group, 5 h
human S1P1-GFP [6] = target: T1, human S1P1-GFP (Homo sapiens, UniProt P21453); experiment: S1P1-GFP phosphorylation, P^32-orthophosphate labeled HEK293 cells; assay type: cell-based
T1 sequence (P21453 whole entry): as the sequence (P21453 whole entry R120A) above, with A120R counted along it

human S1P1-GFP [7] = target: T1, human S1P1-GFP; experiment: S1P1-GFP internalization in HEK293 cells; assay type: cell-based
human S1P1-GFP [8] = target: T1, human S1P1-GFP; experiment: S1P1-GFP ubiquitination in HEK293 cells; assay type: cell-based
Water solubility = assay type: physicochemical
[9] = EC50, activation of p42/p44 MAPK phosphorylation, WT, without W146
[10] = Sprague Dawley, plasma, iv, 1 mg/kg
[11] = Sprague Dawley, plasma, po, 2 mg/kg

human wild-type S1P1 (WT), sequence (P21453 whole entry): as the sequence (P21453 whole entry R120A) above, with A120R counted along it
human S1P1, sequence (P21453 whole entry): as the sequence (P21453 whole entry R120A) above, with A120R counted along it
human S1P5, sequence (Q9H228 whole entry): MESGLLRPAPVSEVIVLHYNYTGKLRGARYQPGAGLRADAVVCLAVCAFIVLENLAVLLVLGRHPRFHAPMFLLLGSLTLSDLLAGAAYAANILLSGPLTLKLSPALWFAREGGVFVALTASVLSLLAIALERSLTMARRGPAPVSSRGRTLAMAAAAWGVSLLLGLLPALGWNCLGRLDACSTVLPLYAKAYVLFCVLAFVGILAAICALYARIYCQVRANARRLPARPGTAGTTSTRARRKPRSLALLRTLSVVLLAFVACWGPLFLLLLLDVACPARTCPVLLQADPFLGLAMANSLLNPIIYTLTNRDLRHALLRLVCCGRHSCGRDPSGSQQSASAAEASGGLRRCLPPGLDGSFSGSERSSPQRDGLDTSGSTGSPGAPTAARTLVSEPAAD

In the case of `CCOc1ccc(-c2nc(-c3cccc4c3CCC4NCCO)no2)cc1OCC` (centres unmarked) [CYM-5442, 2-(4-(5-(3,4-diethoxyphenyl)-1,2,4-oxadiazol-3-yl)-2,3-dihydro-1H-inden-1-ylamino) ethanol], the EC50 (human S1P1) is reported as 0.00135 µM, the “agonist efficacy compared to SEW2871” value (human S1P1; CRE reporter, agonist format) is reported as “full agonist compared to SEW2871” and the “more potent than SEW2871 in vitro” value (human S1P1; depending on which agonist format was used) is reported as 10-50 fold. For the same molecule, the Emax (human S1P1; read-out: Agonist format (Emax)) was 100%, the “selectivity for S1P1 over S1P5” value (human S1P5) was 10,000 fold and the Emax (human S1P5; U2OS, read-out: Agonist format (Emax)) was 20%. It also gave an Emax ([1]; CHO-K1) of 70%, an EC50 [1, 9] of 0.046 µM and an Emax (S1P1 R^120A mutant) of 100%. For the same molecule, the EC50 (S1P1 R^120A mutant; EC50, p42/p44 MAPK activity, R^120A) was 0.067 µM, the EC50 (S1P1 R^120A mutant; LogEC50, R^120A, log EC50 printed negative) was 0.0631 µM and the “rightward shift in EC50 by 10 μM W146” value (S1P1 R^120A mutant; R^120A) was 3 fold. The Emax (S1P1 E^121A mutant; CHO-K1) was 100%, the “rightward shift in potency by W146 preincubation” value (S1P1 E^121A mutant; E^121A) was 10 fold and the EC50 (S1P1 E^121A mutant; LogEC50, E^121A, log EC50 printed negative) was 0.126 µM. It also gave an EC50 (S1P1 E^121A mutant; mean EC50, activation of p42/p44 MAPK, E^121A) of 0.134 µM, an AUC [2, 10] of 0.57 ± 0.1 µM·h and a Cmax [2, 10] of 220 ± 18 nM. It also gave an MRT [2, 10] of 3.54 ± 0.38 h, a Tmax [2, 10] of 0.083 h and a clearance [2, 10] of 72.9 ± 11.7 mL/min/kg. The half-life ([2]; Sprague Dawley, plasma, iv, 1 mg/kg, half-life (t1/2)) was 0.833 h, the half-life ([2]; Sprague Dawley, plasma, iv, 1 mg/kg, t1/2, rat, 1 mg/kg i.v.) was 3.05 ± 0.37 h and the bioavailability ([2]; Sprague Dawley, plasma, oral, 2 mg/kg) was 20.5 ± 4.67%. For the same molecule, the AUC [2, 11] was 0.23 ± 0.053 µM·h, the Cmax [2, 11] was 36 ± 7.2 nM and the MRT [2, 11] was 6.35 ± 2.1 h. For the same molecule, the Tmax [2, 11] was 1.17 ± 0.76 h, the half-life ([2]; Sprague Dawley, plasma, po, 2 mg/kg, half-life (t1/2), P.O.) was 3 h and the half-life ([2]; Sprague Dawley, plasma, po, 2 mg/kg, t1/2, rat, 2 mg/kg PO) was 4 ± 1.45 h. The “AUC (% extrap,ob)” value ([2]; 1 mg/kg i.v.) was 11.35 ± 14.20%, the “AUC (% extrap,ob)” value ([2]; 2 mg/kg PO) was 27.80 ± 14.20% and the “Cl” value ([2]; 2 mg/kg PO) was 360.1 ± 73.3 mL/min/kg. The concentration at 2 h ([3]; brain) was 13700 ± 2900 nM, the concentration at 2 h ([3]; plasma) was 1080 ± 300 nM and the “decrease of B-lymphocytes, of vehicle” value ([4]; abstract) was 65%. The “decrease of T-lymphocytes, of vehicle” value ([4]; abstract) was 85%, the “reduction of CD4^+, CD8^+ and B220^+ cell counts, of vehicle” value ([4]; mice, 2 mg/kg, 5 h) was “approximately 50%” and the “decrease of B220^+ B-cells compared to vehicle” value ([4]; mice, 10 mg/kg i.p., 5 h) was 63%. For the same molecule, the “decrease of CD4^+ T-cell counts, of vehicle” value ([4]; mice, 10 mg/kg i.p., 5 h) was 83%, the “decrease of CD8^+ T-cell counts, of vehicle” value ([4]; mice, 10 mg/kg i.p., 5 h) was 84% and the “decrease of WBC counts vs. vehicle” value ([4]; mice, 10 mg/kg i.p., 5 h) was 64%. For the same molecule, the “% CD4^+” value ([4]; mice, 10 mg/kg i.p., 5 h, vehicle 11.5±0.2) was 1.9±0.2 %, the “WBC (K/mm^3)” value ([4]; mice, 10 mg/kg i.p., 5 h, vehicle 11.9±0.2) was 4.3±0.4 K/mm^3 and the “% CD8^+” value ([4]; mice, 10 mg/kg i.p., 5 h, vehicle 11.9±0.3) was 1.9±0.4 %. For the same molecule, the “% B220^+” value ([4]; mice, 10 mg/kg i.p., 5 h, vehicle 40.5±0.6) was 14.7±0.5 %, the “B220^+ cells, percent relative to animals receiving both drug vehicles” value ([4]; mice, 5 h) was 46.0±18.1 % and the “CD4^+ cells, percent relative to animals receiving both drug vehicles” value ([4]; mice, 5 h) was 53.5 ± 6.5 %. For the same molecule, the “CD8^+ cells, percent relative to animals receiving both drug vehicles” value ([4]; mice, 5 h) was 47.4±7.5 %, the “serum drug concentration (± SD)” value [5] was 190 ± 40 nM and the “serum CYM-5442 concentration required for induction and maintenance of lymphopenia” value ([5]; i.p.) was about 50 nM. The S1P1 phosphorylation (human S1P1-GFP [6]; 500 nM) was “stimulated S1P1 phosphorylation in a time-dependent manner”, the S1P1-GFP internalization (human S1P1-GFP [7]; 500 nM) was “stimulated the internalization of S1P1-GFP receptor” and the S1P1-GFP receptor ubiquitination (human S1P1-GFP [8]; 1 h incubation) was “stimulated receptor ubiquitination (UB-S1P1-GFP) to AFD-R levels”. The water solubility (Water solubility) was “moderately water-soluble”.

Work on `CCCCCCCCCCCCC/C=C/[C@@H](O)[C@@H](N)COP(=O)(O)O` [S1P, Sphingosine-1 phosphate] yielded an EC50 ([1]; EC50, activation of p42/p44 MAPK phosphorylation, WT, 10 μM W146 prior to agonist) of 0.14 µM, an EC50 [1, 9] of 0.0023 µM and an EC50 ([1]; LogEC50, WT, without W146, log EC50 printed negative, 5 min stimulation) of 0.00251 µM. For the same molecule, the “rightward shift in potency by 10 μM W146” value ([1]; WT, agonist with W146 vs agonist alone) was 60 fold, the Emax (S1P1 R^120A mutant) was 25% and the “p42/p44 MAPK activity in the mutant” value (S1P1 R^120A mutant; R^120A) was “near loss of p42/p44 MAPK activity”. The “p42/p44 MAPK activation in the mutant” value (S1P1 E^121A mutant; E^121A) was “did not lead to significant p42/p44 MAPK activation”.

In the case of `N#CC(=C(/N)Sc1ccccc1N)/C(C#N)=C(/N)Sc1ccccc1N` [U0126], the “block of S1P and CYM-5442 stimulated P42/P44 MAPK phosphorylation” value ([1]; 10 μM pre-incubation) is reported as “completely blocked”.

In the case of `CCCCCCc1cccc(NC(=O)[C@H](N)CCP(=O)(O)O)c1` [W146, (R)-3-Amino-(3-hexylphenylamino)-4-oxobutylphosphonic acid, reference compound], the “inhibition of CYM-5442-mediated p42/p44 MAPK phosphorylation” value ([1]; WT cells, 10 μM W146 preincubation) is reported as “complete inhibition”, the “reversal of CYM-5442 effects on B-220^+, CD4^+ and CD8^+ cell counts” value ([4]; W146 20 mg/kg 30 min before CYM-5442 2 mg/kg) is reported as “partially recover” and the “B220^+ cells, percent relative to animals receiving both drug vehicles” value ([4]; mice, 5 h) is reported as 114.7±5.9%. The “CD4^+ cells, percent relative to animals receiving both drug vehicles” value ([4]; mice, 5 h) was 108.1 ±17.4%, the “CD8^+ cells, percent relative to animals receiving both drug vehicles” value ([4]; mice, 5 h) was 112.2±19.6% and the “serum drug concentration (± SD)” value [5] was 1760 ± 310 nM. The “effect of antagonist alone on S1P1 phosphorylation” value (human S1P1-GFP [6]; 10 μM) was “no effect”, the “effect on CYM-5442-mediated S1P1 phosphorylation” value (human S1P1-GFP [6]; 10 μM, 30 min pre-incubation) was “completely abolished” and the “effect of antagonist alone on internalization” value (human S1P1-GFP [7]) was “did not have an effect on internalization”. For the same molecule, the “effect on internalization of S1P1-GFP by CYM-5442” value (human S1P1-GFP [7]; 10 μM preincubation) was “completely blocked” and the “effect on CYM-5442-stimulated S1P1 ubiquitination” value (human S1P1-GFP [8]; pre-incubation 30 min) was “nearly abolish”.
